Data from patent US12298319B2, “Method for measuring alpha value of muscarinic M1 receptor positive allosteric modulators” (Takeda Pharmaceutical Company Limited, priority 2017, dated 2025).
Where two headings read alike, the source gives them in different places.

Assay: Pharmacokinetics after oral administration to mice
Format: in vivo, mouse
Conditions: for Cmax / Tmax / AUC(0-t): mouse, plasma, po; for AUC(0-t): read-out: AUC0-4 h
Procedure: Plasma concentration of Compound B at 30 and 1000 mg/kg. Plasma samples were collected at 0.5, 1, 2, 4 and 6 h after oral treatment. Results represent the mean. n=3 per group.

`Cn1cc(-c2ccc(CN3Cc4cccc(Oc5c(F)cccc5C#N)c4C3=O)cc2)cn1` [Compound B, 3-fluoro-2-((2-(4-(1-methyl-1H-pyrazol-4-yl)benzyl)-3-oxo-2,3-dihydro-1H-isoindol-4-yl)oxy)benzonitrile] showed a Cmax (30 mg/kg p.o.) of 270 ng/mL, a Tmax (30 mg/kg p.o.) of 2 h and an AUC(0-t) (30 mg/kg p.o.) of 800 ng·h/mL. For the same molecule, the Cmax (1000 mg/kg p.o.) was 970 ng/mL, the Tmax (1000 mg/kg p.o.) was 1.7 h and the AUC(0-t) (1000 mg/kg p.o.) was 3020 ng·h/mL. For the same molecule, the “plasma concentration at 1000 mg/kg relative to 30 mg/kg” value (p.o.) was 3.6 fold.
